Assay results as given in PMC7464159, “Triple Negative Breast Cancer and Breast Epithelial Cells Differentially Reprogram Glucose and Lipid Metabolism upon Treatment with Triterpenic Acids” (Biomolecules, 2020).

Key:
MCF-10A cells [1] = test: Cell cycle analysis by flow cytometry; format: cell-based, human; settings: 48 h
Procedure: MDA-MB-231 and MCF-10A cells were seeded in six-well plates at a density of 4 × 10^5 cells/mL (2 mL per well) and cultured for 24 h at 37 °C. […] Vehicle solvent control cells received DMSO (0.10% v/v). Then, cells were trypsinized, collected, washed with phosphate buffered saline (PBS) and fixed with 85% cold ethanol. At the time of analysis, cells were centrifuged at 300× g for 5 min at 4 °C and resuspended in PBS, before being treated with RNase (50 µg/mL) and propidium iodide staining solution (50 µg/mL) and incubated, in the dark, for at least 20 min at room temperature. Propidium iodide-stained cells were analyzed on a Coulter EPICS XL (Beckman Coulter, Hialeah, FL, USA) flow cytometer. The results were acquired using the SYSTEM II software (version 3.0 Beckman-Coulter ®, Brea, CA, USA). Four replicates were performed for each treatment, and for each sample at least 5000 nuclei were acquired. Analysis of cell cycle distribution was performed using the FlowJo software (Tree Star, Ashland, USA).

MCF-10A cells [2] = test system: MCF-10A cells; set-up: method as in PMID 29802332, PMID 30684465; settings: previous studies; cited from earlier work
MDA-MB-231 cells = test system: MDA-MB-231 cells; set-up: method as in PMID 22407812; settings: BA 2.5–10 μM, 48 h; cited from earlier work

| Structure (SMILES) | effect on cell cycle phases (MCF-10A cells [1]; 20 µM, vs untreated) | cells at the G0/G1 phase (MCF-10A cells [1]; 15 µM, vs control) | cells at the G2 phase (MCF-10A cells [1]; 15 µM, vs control) | cells at the S phase (MCF-10A cells [1]; 15 µM, vs control) | influence on MCF-10A cells viability (MCF-10A cells [2]) | cell cycle effect (MDA-MB-231 cells) |
| --- | --- | --- | --- | --- | --- | --- |
| C[C@H]1[C@H](C)CC[C@]2(C(=O)O)CC[C@]3(C)C(=CC[C@@H]4[C@@]5(C)CC[C@H](O)C(C)(C)[C@@H]5CC[C@]43C)[C@H]12 [UA, ursolic acid] | no statistical differences |  |  |  |  |  |
| C=C(C)[C@@H]1CC[C@]2(C(=O)O)CC[C@]3(C)[C@H](CC[C@@H]4[C@@]5(C)CC[C@H](O)C(C)(C)[C@@H]5CC[C@]43C)[C@@H]12 [BA, betulinic acid] |  | decrease in the G0/G1 phase | cell cycle arrest at the G2 phase | increase in the S phase | no influence | cell cycle arrest at G2/M phase |
